A short description of data set [1]: Stability / hydroscopicity. The conditions noted are these: hydrochloride salt. Type of data set: physicochemical.
The nature of data set [2]: Solubility. Type of data set: physicochemical.
Data set [3] is described as follows: Acute toxicity, intravenous. Particulars: mouse, in vivo.
Data set [4] relates to Trichophyton mentagrophytes. In words: Antibacterial activity, agar dilution method (Table 2-3). Type of data set: cell-based. Particulars: nutrient agar + 1% glucose, 27° C., hydrochloride, read-out: Minimum inhibitory concentration. (In general: In agar dilution, organisms are placed on agar that contains the substance at set levels.)
Data set [5] concerns Bacillus subtilis NRRL B-558. In words: Antibacterial activity, agar dilution method (Table 2-1). Type of data set: cell-based. The conditions noted are these: NRRLB558, nutrient agar, 37° C., hydrochloride, read-out: Minimum inhibitory concentration.
Data set [6] concerns Sarcina lutea PCI1001. The description is as above. Type of data set: cell-based. Particulars: Micrococcus luteus, nutrient agar, 37° C., hydrochloride, read-out: Minimum inhibitory concentration.
Data set [7] has as its system mouse Ehrlich ascites tumor. As to the kind of experiment: Effect on mouse Ehrlich ascites tumor. Particulars: for rate of elongation of survival period: once a day for 9 days, ICR mice, control 13.8 days.
The test system of data set [8] is Aeromonas sp. (KT-444). In words: Antibacterial activity, agar dilution method (Table 2-2). The conditions noted are these: read-out: Minimum inhibitory concentration.
Data set [9] has as its system mouse Sarcoma 180. As to the kind of experiment: Effect on Sarcoma 180. Particulars: for rate of elongation of survival period: once a day for 9 days, ICR mice, control 13.8 days.
Data set [10] has as its system Aeromonas punctata IAM1646. As to the kind of experiment: Antibacterial activity, agar dilution method (Table 2-2). Particulars: Aeromonas caviae, IAM1646, read-out: Minimum inhibitory concentration.
The subject of data set [11] is Candida krusei NI7492. As to the kind of experiment: Antibacterial activity, agar dilution method (Table 2-3). Type of data set: cell-based. The conditions noted are these: Pichia kudriavzevii, nutrient agar + 1% glucose, 27° C., hydrochloride, read-out: Minimum inhibitory concentration.
Data set [12] deals with Shigella sonnei JS11746. As to the kind of experiment: Antibacterial activity, agar dilution method (Table 2-1). Type of data set: cell-based. The conditions noted are these: nutrient agar, 37° C., hydrochloride, read-out: Minimum inhibitory concentration. The text has this:
(§1) | Medium used: nutrient agar

The test system of data set [13] is Shigella flexneri 4bJS11811. Described as above. Type of data set: cell-based. Particulars: nutrient agar, 37° C., hydrochloride, read-out: Minimum inhibitory concentration.
Text: as §1

The subject of data set [14] is Salmonella typhi T-63. Described as above. Type of data set: cell-based. The conditions noted are these: Salmonella enterica, read-out: Minimum inhibitory concentration.
The subject of data set [15] is Aeromonas salmonecida ATCC 14174. As to the kind of experiment: Antibacterial activity, agar dilution method (Table 2-2). The conditions noted are these: ATCC14174, read-out: Minimum inhibitory concentration.
Data set [16] deals with Gram-positive and Gram-negative bacteria. As to the kind of experiment: Antibacterial activity, agar dilution method (summary in words). Type of data set: cell-based. The conditions noted are these: as the hydrochloride salt.
Data set [17] has as its system Pseudomonas lachrymans. In words: Antibacterial activity, agar dilution method (Table 2-2). Particulars: read-out: Minimum inhibitory concentration.
Data set [18] concerns Candida Yu-1200. In words: Antibacterial activity, agar dilution method (Table 2-3). Particulars: YU1200, nutrient agar + 1% glucose, 27° C., hydrochloride, read-out: Minimum inhibitory concentration. Type of data set: cell-based.
The subject of data set [19] is Saccharomyces cerrevisiae. Described as above. Type of data set: cell-based. Particulars: nutrient agar + 1% glucose, 27° C., hydrochloride, read-out: Minimum inhibitory concentration.
The subject of data set [20] is mouse leukemia EL-4. As to the kind of experiment: Effect on mouse leukemia EL-4. Type of data set: in vivo. The conditions noted are these: for rate of elongation of survival period: once a day for 9 days, C57 BL/6 mice, control 11.0 days.

Molecules are shown by their SMILES. Converted amounts (≈) assume the structure as drawn. “Also recorded” adds a separate entry of the source. Structures can show the parent of a compound that is named as a salt.

The term LD50 denotes the dose at which mortality reaches 50%. Higher therefore signals lower toxicity. On to `N=C(N)NCCCCC(O)CC(=O)NC(O)C(=O)NCCCCNCCCN` (stereo not shown) [BMG162-aF2 hydrochloride], for which the hydroscopicity entry in data set [1] is “so hydroscopic that it forms a hydrate”. Moreover, the solubility entry is listed as “only slightly soluble or insoluble” in data set [2] (benzene); “only slightly soluble or insoluble” in data set [2] (chloroform); “only slightly soluble or insoluble” in [2] (ethanol); “only slightly soluble or insoluble” in [2] (ethyl acetate); “easily soluble” in data set [2] (methanol); “easily soluble” in data set [2] (water). Besides, the LD50 in data set [3] was > 80 mg/kg.
On to `N=C(N)NCCCCC(O)CC(=O)NC(O)C(=O)NCCCCNCCCN` (stereo not shown) [BMG162-aF2], for which the MIC is > 100 mg/L in data set [4]; 100 mg/L (≈ 248 µM) in data set [5]; 100 mg/L (≈ 248 µM) in [6]; > 100 mg/L in data set [8]; > 100 mg/L in data set [10]; > 100 mg/L in data set [11]. The MIC in [12] is > 100 mg/L; in [13], > 100 mg/L; in data set [14], > 100 mg/L; in data set [15] it was > 100 mg/L; in [17] it was 50 mg/L (≈ 124 µM); in [18], > 100 mg/L. Further, the MIC in data set [19] is > 100 mg/L. In addition, the “rate of elongation of survival period” value in data set [7] (1.56 mg/kg/day ip) is 133; in data set [7] (3.13 mg/kg/day ip), 188; in data set [7] (6.25 mg/kg/day ip), 236; in data set [7] (12.5 mg/kg/day ip), 170; in data set [7] (25 mg/kg/day ip), 72; in [7] (50 mg/kg/day ip), 54. Further, the “rate of elongation of survival period” value is 220 in data set [9] (1.56 mg/kg/day ip); 243 in data set [9] (3.13 mg/kg/day ip); 181 in data set [9] (6.25 mg/kg/day ip); > 279 in [9] (12.5 mg/kg/day ip); 53 in [9] (50 mg/kg/day ip); 131 in data set [20] (0.313 mg/kg/day ip). Besides, the “rate of elongation of survival period” value in data set [20] (0.625 mg/kg/day ip) was 130; in data set [20] (1.25 mg/kg/day ip), 159; in [20] (2.5 mg/kg/day ip) it was 164; in [20] (5 mg/kg/day ip) it was 193. For the same molecule, the Toxic sign result in data set [7] (50, 25 and 12.5 mg/kg/day ip (footnote *)) is reported as “Toxic sign appeared”; in [9] (50, 12.5 and 6.25 mg/kg/day ip (footnote *)) it was “Toxic sign appeared”. Moreover, the “effect on Ehrlich ascites tumor” value in [7] (hydrochloride, ip) was “remarkable effects of cure and elongation of survival period; also recorded: showed an effect against a transplanted tumor”. For the same molecule, in data set [9] (hydrochloride, ip), the “effect on Sarcoma 180” value is “remarkable effects of cure and elongation of survival period; also recorded: showed an effect against a transplanted tumor”. Also, the “inhibitory activity against Gram-positive and Gram-negative bacteria” value in [16] is “only weak inhibitory activity; also recorded: weakly inhibits Gram positive and negative bacteria”. For the same molecule, in data set [20] (hydrochloride, ip), the “effect on mouse leukemia EL-4” value is “remarkable effects of cure and elongation of survival period”.

(Values after US4416899A, “Antibiotic BMG162-aF2, a process for production thereof, and antitumor drug containing said new antibiotic as active ingredient” (priority 1980, dated 1983).)
